The nature of data set [1]: DBP products in mice liver mitochondria before and after DBPs treatment, HPTLC. It counts as in vivo, Swiss Albino mice. Conditions: one hour after i.p. 4:1 mixture of 3,8-(OH)2-DBP and 3-OH-DBP 20 mg/Kg. On the procedure:
Mitochondria were isolated from heart and liver of chicken, goat and mice following a published procedure (Liu Y, Deng F, Zhao R and Qu S, Chemosphere, 40(8):851-854, 2000). […] The tissue was cut into small pieces, homogenized and centrifuged at 900 g for one minute. The supernatant was again centrifuged twice, for 20 minutes each time at 900 g. The sediment at each step was discarded. The clear supernatant was centrifuged twice at 12,000 g, 20 minutes each time, to form pellets of a mitochondria-enriched fraction. The fraction was divided into two parts. One part was resuspended in a measured volume of distilled water and sonicated (10 min×2). […] The two extracts were subjected to comprehensive HPTLC and HPLC analyses for detection and quantitation of DBPs and their equivalents. […] One hour after administration the animals were sacrificed and mitochondria from liver were isolated and analyzed as described for Example 6. […] Mobile Phase—Chloroform:Methanol 90:10 Sample application—CAMAG LINOMAT 5 (Automated applicator) Detection—240 nm (CAMAG TLC SCANNER 3) 3-OH-DBP and 3,8-(OH)2-DBP (and their conjugates) were detected in mitochondria of control mice by HPTLC. Administration of DBPs to the animals increased the amount of DBPs and its products in mitochondria as detected by using authentic markers of the two DBPs (Table 2).

Data set [2] relates to Blood levels of ATP and energy related indices. Description: Blood ATP and energy related indices in mice after forced swimming stress. It counts as in vivo, Swiss albino mice. On the procedure:
Swiss albino mice (20±2 g) were fed orally with—(a) 3,8-(OH)2-DBP and (b) 3-OH-DBP (each 25 mg/Kg b.w.), per day, for 7 days. In case of the controls, only vehicle (0.8% carboxymethyl cellulose in water) was administered for seven days of the experiment. The animals were subjected to ‘forced swimming’ for 30 minutes on the 7th day of the experiment [Pliakas, A. M., Carlson, R. R., Neve, R. L., Konradi, C., Nestler, E. J. and Carlezon, W. A. 2001. J. Neurosci., 21(18), 7397-7403]. Immediately after the swimming, blood was collected from all the animals for analysis of ATP and related nucleotides by HPLC [Smolenska, Z., Kaznowska, Z., Zarowny, D., Simmonds, H. A. and Smolenski, R. T. 1999. Rheumatology, 38, 997-1002; Komarova, S. V., Mosharov, E. V., Vitvitsky, V. M. and Ataullakhanov, F. I. 1999. Blood Cell Mol. Dis., 25(13), 170-179; Marquardt, D. L., Gruber, H. E. and Wasserman, S. I. 1984. Proc. Natl. Acad. Sci., 81, 6192-6196]. AEC (adenylate energy charge) was calculated according to the method of Atkinson and Walton [Atkinson D E & Walton G M, Adenosine triphosphate conservation in metabolic regulation, J Biol Chem, 242 (1967) 3239] and TAN (total adenine nucleotides) was calculated according to an established method [Spencer M K & Katz A, Role of glycogen in control of glycolysis and IMP formation in human muscle during exercise, Am J Physiol, 260 (1991) E859].

In data set [3] the test system is stress-induced lipid peroxidation of mouse brain. Description: Stress-induced lipid peroxidation of mouse brain (thiobarbituric acid reaction). It counts as in vivo, Swiss albino mice. Conditions: oral each 5 mg/Kg b.w. per day for 5 days, hypoxic stress, control 1.169. How it is done: Swiss albino mice (20±g) were fed orally with—(a) 3,8-(OH)2-DBP; (b) CoQ10; (c) a combination of 3,8-(OH)2-DBP and CoQ10 and (d) 3,8-(OH)2-DBP and CoQ10 in a clathrated form with fusoms (each 5 mg/Kg b.w.), per day, for 5 days. The animals were subjected to hypoxic stress for 1 hour each day for 3 days from the 3rd day of the experiment. After the stipulated time-period, brain and liver of the animals were collected and mitochondria from the liver were separated as described previously (Liu Y, Deng F, Zhao R and Qu S, Chemosphere, 40(8):851-854, 2000). Lipid peroxidation in brain and liver-mitochondria was estimated by the method of Ohkawa et al. (Ohkawa H, Ohishi N and Yagi K, Assay for lipid peroxides in animal tissues by thiobarbituric acid reaction. Anal. Biochem., 95:351-358, 1979).

As to `O=c1oc2cc(O)ccc2c2ccc(O)cc12` [3,8-(OH)2-DBP, 3,8-dihydroxydibenzo-α-pyrone], the “Amount in mitochondria after DBP treatment” value in data set [1] was 2.3 nmol/gm wet wt. Further, the “content of ATP, AEC values and ATP/ADP ratio (in blood), in words” value in data set [2] (albino mice engaged in forced swimming) is “significant improvement only in some parameters”. The ATP in data set [2] (blood, forced swimming, 25 mg/Kg p.o. 7 days, mean ± SEM of 6, control 0.60 ± 0.01) is recorded as 0.68 ± 0.03 µM. This compound also had a TAN in data set [2] (blood, forced swimming, 25 mg/Kg p.o. 7 days, mean ± SEM of 6, control 0.79 ± 0.01) of 0.86 ± 0.03 µM. Moreover, in data set [2] (blood, forced swimming, 25 mg/Kg p.o. 7 days, mean ± SEM of 6, control 0.86 ± 0.003), the AEC worked out at 0.88 ± 0.003. Also, the ATP/ADP ratio in data set [2] (blood, forced swimming, 25 mg/Kg p.o. 7 days, mean ± SEM of 6, control 3.84 ± 0.09) stood at 4.30 ± 0.12. Besides, the “OD Values at 532 nm (lipid peroxidation)” value in data set [3] is given as 1.119.

The values above are taken from US8894993B2, “Mitochondria-targeted antioxidants” (Natreon Inc., priority 2006, dated 2014).
